Values quoted from earlier work as cited in US20210308040A1, “KETAMINE ORAL TRANSMUCOSAL DELIVERY SYSTEM” (GUANGZHOU DAZHOU BIOMEDICINE LTD., priority 2018, published 2021).

How the values were obtained:
[1] = tested on: NMDAR; details: rodent species
[2] = tested on: NMDA receptor; details: in vitro
[3] = tested on: experimentally induced ischemic pain
[4] = tested on: orofacial pain; details: fixed doses
[5] = 0 to 24 hours postoperatively; bolus 0.5 mg/kg and infusion 0.25 mg/kg/hr
[6] = in vivo
[7] = ketamine 0.3 mg/kg vs morphine 0.1 mg/kg, intravenous push
[8] = not given; remark: listed apart in the source
[9] = 33 CRPS patients; about 23 mg/hr for about 4.7 days
[10] = not given; remark: listed apart in the source

C[C@]12N[C@H](Cc3ccccc31)c1ccccc12 [MK-801]
effect on analgesia [1]: anti-analgesic effect

CN[C@]1(c2ccccc2Cl)CCCCC1=O [S-ketamine]
potency in NMDAR binding relative to R-ketamine [2]: about 4 times
in vivo potency difference between the two enantiomers [3]: about 4 times
potency relative to racemic ketamine [4]: 2 times
mean difference in morphine consumption versus placebo [5]: 42 mg

CNC1(c2ccccc2Cl)CCCCC1=O (racemic) [ketamine]
onset of antidepressant effect after administration [6]: ≤ 2 h
primary change in mean pain scores versus morphine [7]: no significant differences
absolute oral bioavailability (humans): 10-20%
half-life (in vivo): 2 to 3 h
systemic (primarily hepatic) clearance (in vivo): about 19 ml/min·kg
indications of liver toxicity ([8]; 39 clinical trials, IV infusion rate less than 1.2 mg/kg/h, bolus less than 1 mg/kg): no indications of liver toxicity
reduction of opioid consumption ([8]; low-dose intravenous (IV) ketamine): 40%
mean immediate response (% relief) [9]: ≤ 92%
patients with alteration in hepatic enzyme profile [9]: four patients
patients with hallucinations [9]: six patients

CN[C@@]1(c2ccccc2Cl)CCCCC1=O [R-ketamine]
psychotomimetic side effects and abuse liability ([10]; animal models): free of psychotomimetic side effects and abuse liability
antidepressant effectiveness versus S-ketamine ([10]; model animal studies): more effective as an antidepressant than S-ketamine
